# Results reported in ChEMBL document CHEMBL4619760, “Anti-inflammatory Efficacy of Combined Natural Alkaloid Berberine and S1PR Modulator Fingolimod at Low Doses in Ulcerative Colitis Preclinical Models” (J Nat Prod, 2020).
# The source made the active and inactive calls. The rule behind the calls is not given here.
# Experiments:
# [1] = test system: Mus musculus; experiment: Anti-colitis activity against DSS-induced C57BL/6 mouse model of chronic relapsing colitis assessed as reduction in stool consistency score at 0.15 mg/kg, po administered once daily for 30 days starting from day 13 post DSS-challenge cotreated with 20 mg/kg berberine measured on day 24; assay type: functional, organism-based
# [2] = test system: Mus musculus; experiment: Effect on total STAT3 expression in DSS-induced C57BL/6 mouse model of subchronic relapsing colitis at 0.15 mg/kg, po administered once daily for 14 days starting from day 5 post DSS-challenge cotreated with 20 mg/kg berberine by Western blot analysis; assay type: ADME, organism-based; conditions: in vivo, 336 h
# [3] = test system: Mus musculus; experiment: Anti-colitis activity against DSS-induced C57BL/6 mouse model of chronic relapsing colitis assessed as reduction in disease activity index at 0.3 mg/kg, po administered once daily for 30 days starting from day 13 post DSS-challenge and measured on day 24; assay type: functional, organism-based
# [4] = test system: Mus musculus; experiment: Anti-colitis activity against DSS-induced C57BL/6 mouse model of subchronic relapsing colitis assessed as reduction in stool consistency scores at 0.3 mg/kg, po administered once daily for 14 days starting from day 5 post DSS challenge and measured on day 19; assay type: functional, organism-based
# [5] = test system: Mus musculus; experiment: (§1) Anti-colitis activity against DSS-induced C57BL/6 mouse model of subchronic relapsing colitis assessed as effect on body weight at 0.15 mg/kg, po administered once daily for 14 days starting from day 5 post DSS-challenge cotreated with 20 mg/kg berberine and measured after day 12 to day 18; assay type: functional, organism-based
# [6] = target: Signal transducer and activator of transcription 3 (Homo sapiens) (UniProt P40763); experiment: Inhibition of STAT3 activation in human THP1 cells assessed as reduction in LPS-induced phosphorylated STAT3 expression at 1 uM incubated for 1 hr followed by LPS challenge and measured after 4 to 6 hrs by Western blot analysis; assay type: cell-based; conditions: THP-1
# Signal transducer and activator of transcription 3 (Homo sapiens), sequence (P40763 whole entry): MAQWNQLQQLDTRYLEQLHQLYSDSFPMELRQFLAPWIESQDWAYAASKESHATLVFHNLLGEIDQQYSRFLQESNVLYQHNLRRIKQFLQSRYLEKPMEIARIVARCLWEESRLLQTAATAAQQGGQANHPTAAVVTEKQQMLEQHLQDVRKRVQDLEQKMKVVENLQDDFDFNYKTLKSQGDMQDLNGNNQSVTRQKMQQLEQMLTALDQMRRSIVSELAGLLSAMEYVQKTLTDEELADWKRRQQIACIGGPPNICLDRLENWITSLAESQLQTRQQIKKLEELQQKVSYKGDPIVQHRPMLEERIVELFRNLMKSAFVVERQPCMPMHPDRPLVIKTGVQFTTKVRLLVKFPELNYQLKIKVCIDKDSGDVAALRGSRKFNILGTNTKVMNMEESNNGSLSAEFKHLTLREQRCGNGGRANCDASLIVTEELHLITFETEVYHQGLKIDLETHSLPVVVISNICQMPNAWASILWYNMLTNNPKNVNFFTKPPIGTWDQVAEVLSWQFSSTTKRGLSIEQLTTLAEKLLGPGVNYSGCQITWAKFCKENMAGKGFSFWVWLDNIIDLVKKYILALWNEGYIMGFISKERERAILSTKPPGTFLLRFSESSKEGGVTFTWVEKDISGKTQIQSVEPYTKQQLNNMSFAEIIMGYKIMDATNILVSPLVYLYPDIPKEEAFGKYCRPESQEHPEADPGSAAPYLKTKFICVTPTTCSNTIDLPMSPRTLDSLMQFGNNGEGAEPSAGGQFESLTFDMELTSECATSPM
# [7] = test system: Mus musculus; experiment: as §1, with “reduction in stool consistency score” for “effect on body weight”; assay type: functional, organism-based
# [8] = test system: Mus musculus; experiment: (§2) Anti-colitis activity against DSS-induced C57BL/6 mouse model of chronic relapsing colitis assessed as reduction in stool bleeding at 0.15 mg/kg, po administered once daily for 30 days starting from day 13 post DSS-challenge cotreated with 20 mg/kg berberine and measured on day 43; assay type: functional, organism-based
# [9] = test system: Mus musculus; experiment: as §2, with “DSS-induced loss of colon crypt and columnar epithelium” for “stool bleeding”, “berberine by hematoxylin” for “berberine”, “eosin staining based light microscopic analysis” for “measured on day 43”; assay type: functional, organism-based
# [10] = test system: Mus musculus; experiment: Anti-colitis activity against DSS-induced C57BL/6 mouse model of chronic relapsing colitis assessed as reduction in stool consistency score at 0.3 mg/kg, po administered once daily for 30 days starting from day 13 post DSS-challenge measured on day 43; assay type: functional, organism-based
# [11] = test system: Mus musculus; experiment: as §1, with “reduction in stool bleeding score” for “effect on body weight”; assay type: functional, organism-based
# [12] = test system: Mus musculus; experiment: Antiinflammatory activity against DSS-induced C57BL/6 mouse model of subchronic relapsing colitis assessed as reduction in S1PR1 mRNA level at 0.15 mg/kg, po administered once daily for 14 days starting from day 5 post DSS-challenge cotreated with 20 mg/kg berberine by RT-qPCR analysis; assay type: functional, organism-based
# [13] = test system: Mus musculus; experiment: (§3) Anti-colitis activity against DSS-induced C57BL/6 mouse model of chronic relapsing colitis assessed as reduction in DSS-induced multiple erosive lesions in colon at 0.3 mg/kg, po administered once daily for 30 days starting from day 13 post DSS-challenge; assay type: functional, organism-based
# [14] = test system: Mus musculus; experiment: as §3, with “inflammatory cell infiltration” for “multiple erosive lesions”, “DSS-challenge by hematoxylin and eosin staining based light microscopic analysis” for “DSS-challenge”; assay type: functional, organism-based
# [15] = (§4) Toxicity in DSS-induced C57BL/6 mouse model of chronic relapsing colitis assessed as induction of abnormalities in liver at 0.15 mg/kg, po administered once daily for 30 days starting from day 13 post DSS-challenge cotreated with 20 mg/kg berberine by hematoxylin and eosin staining based light microscopic analysis; assay type: organism-based; conditions: in vivo, 720 h
# [16] = test system: Mus musculus; experiment: Anti-colitis activity against DSS-induced C57BL/6 mouse model of subchronic relapsing colitis assessed as reduction in DSS-induced colon swelling at 0.15 mg/kg, po administered once daily for 30 days starting from day 13 post DSS-challenge cotreated with 20 mg/kg berberine; assay type: functional, organism-based
# [17] = (§5) Toxicity in DSS-induced C57BL/6 mouse model of chronic relapsing colitis assessed as induction of abnormalities in liver at 0.3 mg/kg, po administered once daily for 30 days starting from day 13 post DSS-challenge by hematoxylin and eosin staining based light microscopic analysis; assay type: organism-based; conditions: in vivo, 720 h
# [18] = test system: Mus musculus; experiment: Antiinflammatory activity against DSS-induced C57BL/6 mouse model of subchronic relapsing colitis assessed as reduction in IL6 mRNA level at 0.15 mg/kg, po administered once daily for 14 days starting from day 5 post DSS-challenge cotreated with 20 mg/kg berberine by RT-qPCR analysis; assay type: functional, organism-based
# [19] = test system: Mus musculus; experiment: Antiinflammatory activity against DSS-induced C57BL/6 mouse model of subchronic relapsing colitis assessed as reduction in IL6 mRNA level at 0.3 mg/kg, po administered once daily for 14 days starting from day 5 post DSS-challenge by RT-qPCR analysis; assay type: functional, organism-based
# [20] = test system: Mus musculus; experiment: Anti-colitis activity against DSS-induced C57BL/6 mouse model of subchronic relapsing colitis assessed as reduction in phosphorylated STAT3 level at 0.3 mg/kg, po administered once daily for 14 days starting from day 5 post DSS-challenge cotreated with 20 mg/kg berberine by Western blot analysis; assay type: functional, organism-based
# [21] = test system: Mus musculus; experiment: Anti-colitis activity against DSS-induced C57BL/6 mouse model of subchronic relapsing colitis assessed as reduction in spleen swelling at 0.15 mg/kg, po administered once daily for 14 days starting from day 5 post DSS-challenge cotreated with 20 mg/kg berberine and measured after day 12 to day 18; assay type: functional, organism-based
# [22] = test system: Mus musculus; experiment: Anti-colitis activity against DSS-induced C57BL/6 mouse model of chronic relapsing colitis assessed as reduction in stool bleeding at 0.15 mg/kg, po administered once daily for 30 days starting from day 13 post DSS-challenge cotreated with 20 mg/kg berberine and measured on day 38; assay type: functional, organism-based
# [23] = test system: Mus musculus; experiment: Anti-colitis activity against DSS-induced C57BL/6 mouse model of subchronic relapsing colitis assessed as reduction in DSS-induced colon shortening at 0.3 mg/kg, po administered once daily for 14 days starting from day 5 post DSS-challenge; assay type: functional, organism-based
# [24] = test system: Mus musculus; experiment: Anti-colitis activity against DSS-induced C57BL/6 mouse model of subchronic relapsing colitis assessed as reduction in disease activity index at 0.15 mg/kg, po administered once daily for 14 days starting from day 5 post DSS-challenge cotreated with 20 mg/kg berberine measured after day 12 to day 18; assay type: functional, organism-based
# [25] = as §4, with “brain” for “liver”; assay type: organism-based; conditions: in vivo, 720 h
# [26] = test system: Mus musculus; experiment: as §5, with “Anti-colitis activity against” for “Toxicity in”, “reduction” for “induction of abnormalities”, “DSS-induced mononuclear cell infiltration in spleen” for “liver”; assay type: functional, organism-based
# [27] = test system: Mus musculus; experiment: Anti-colitis activity against DSS-induced C57BL/6 mouse model of subchronic relapsing colitis assessed as reduction in disease activity index at 0.3 mg/kg, po administered once daily for 14 days starting from day 5 post DSS challenge and measured on day 19; assay type: functional, organism-based
compound,measurement,setting,value
CCCCCCCCc1ccc(CCC(N)(CO)CO)cc1.Cl [FINGOLIMOD HYDROCHLORIDE],Activity,[1],Active
same,Activity,[2],Non-Toxic
same,Activity,[3],Active
same,Activity,[4],Active
same,Activity,[5],inactive
same,inhibition,[6],Active
same,Activity,[7],Active
same,Activity,[8],Active
same,Activity,[9],Active
same,Activity,[10],Active
same,Activity,[11],Active
same,Activity,[12],Active
same,Activity,[13],Active
same,Activity,[14],Active
same,Activity,[15],Non-Toxic
same,Activity,[16],inactive
same,Activity,[17],Non-Toxic
same,Activity,[18],Active
same,Activity,[19],Active
same,Activity,[20],Active
same,Activity,[21],inactive
same,Activity,[22],Active
same,Activity,[23],Active
same,Activity,[24],Active
same,Activity,[25],Non-Toxic
same,Activity,[26],Active
same,Activity,[27],Active
